These results are taken from US9187790B2, “Saccharification of lignocellulosic biomass” (priority 2012, dated 2015).

The test system of data set [1] is Saccharomyces cerevisiae. Put plainly: Glucose fermentation to ethanol in the presence of residual salt. Format: cell-based. An excerpt: Complete separation of LiBr from sugars is difficult and expensive. Small amounts of LiBr or CaBr2 may be retained in the sugar product stream generated by the processes of this invention. If the sugars are intended for use for fermentation, the residual salt could potentially affect the fermentation. […]

Data set [2] is described as follows: Extraction of CaBr2 from CaBr2-glucose solution with n-butanol/hexane. Format: physicochemical. On the procedure: As mentioned above, CaBr2 can work as effectively as LiBr to hydrolyze lignocellulosic biomass. CaBr2 was extracted from glucose with the butanol extraction method as described above (A). […] More than half of the initial glucose was extracted to the solvent phase. […] Only 10 mg glucose was extracted into 5:5 butanol/hexane.

A short description of data set [3]: Hydrolysis of biomass in concentrated solutions of different salts. To be noted: for conversion/hydrolysis of polysaccharides (in words): concentration of salt 60%.
Text: Hydrolysis of biomass in different metal halide solutions was investigated.
Data set [4] can be described thus: Extraction of LiBr from LiBr-glucose solution with n-butanol/hexane. The format is physicochemical. On the set-up: Glucose retained/extraction steps: unit not given here. To be noted: for glucose extracted into the butanol phase: butanol to hexane ratio 7/3; for Glucose retained after extraction: 200 mg glucose and 1500 mg LiBr in 1 mL water; for Glucose extracted / LiBr extracted / LiBr/sugar (separation efficiency): organic phase from the 1st extraction; for LiBr content left in the LiBr-glucose solution: butanol to hexane 7:3. The text has this: A LiBr-glucose solution was first used to test the butanol extraction.

The nature of data set [5]: Crystallization/precipitation of glucose by ethanol. The format is physicochemical. The settings on record: 400 mg glucose, 2 mL ethanol, 120° C. then cooled to room temperature. As to the method:
Glucose was dissolved in ethanol by heating to 120° C. to facilitate dissolution. The resulting clear solution was then cooled to room temperature with stirring to allow sugar crystallization (or precipitation). Precipitated glucose was filtered and washed with ethanol. However, a small amount of glucose was found dissolved in ethanol, and therefore glucose was not fully recovered. […] The same crystallization operation was carried out as for pure glucose above. […] Almost all other sugars and LiBr were however retained in the ethanol. […] In addition, xylose may negatively affect the crystallization of glucose.

The conditions of data set [6]: cited from earlier work.
The conditions of data set [7]: for Conversion: 1 ml H2O, 1500 mg LiBr, 100 mg spruce powder, 2 mg acid, 140° C., 30 min.
Data set [8] is described as follows: Solubility in water and organic solvent. To be noted: 60% salt in water. Format: physicochemical. An excerpt: After the extraction, any small amount of LiBr in the sugar stream can be removed by means of ion exchange resin, crystallization, precipitation with anti-solvent, and precipitation with sodium carbonate, as described in Examples herein.
Where [9] appears, read: over the investigated concentrations (0 to 5% w/v).
[10] abbreviates: salt concentration 2% (w/v), FIG. 9A.
Setting [11] is: butanol:hexane 5:5 (v/v), 15 extraction steps.
The mark [12] stands for this setting: butanol:hexane 6:4 (v/v), 13 extraction steps.
Setting [13] is: butanol:hexane 6.5:3.5 (v/v), 12 extraction steps.
The mark [14] stands for this setting: butanol:hexane 7:3 (v/v), 10 extraction steps.
The mark [15] stands for this setting: butanol:hexane 7.5:2.5 (v/v), 9 extraction steps.
Setting [16] is: butanol:hexane 8:2 (v/v), 9 extraction steps.
Where [17] appears, read: butanol:hexane 8.5:1.5 (v/v), 8 extraction steps.
Where [18] appears, read: butanol:hexane 9:1 (v/v), 7 extraction steps.
Where [19] appears, read: butanol:hexane 10:0 (v/v), 6 extraction steps.

The structures appear in SMILES notation. Structures can show the parent of a compound that is named as a salt. Where two headings read alike, the source gives them in different places.

`[Cl-].[Na+]` [NaCl, reference compound]: the “inhibition on sugar fermentation” value in data set [1] (salt concentration 5% (w/v)) is listed as “showed inhibition similar to LiBr”.

For `[Br-].[Br-].[Ca+2]` [CaBr2], the ethanol yield entry in data set [1] (compared with LiBr, FIG. 8) was “higher”. In addition, the “inhibition on sugar fermentation” value in data set [1] (setting [9]) is “generally less inhibitory”; in data set [1] (setting [10]), “more inhibitory than NaCl and CaCl2”; in data set [1] (salt concentration 5% (w/v)) it was “Inhibition became more significant”. Further, the “CaBr2 left in the solution” value in data set [2] (butanol/hexane 5:5, 30 extractions, from 1500 mg) amounted to 70 mg. In data set [3], the “conversion/hydrolysis of polysaccharides (in words)” value (“conversion/hydrolysis” below) is reported as “complete conversion/hydrolysis”.

`O=C[C@H](O)[C@@H](O)[C@H](O)[C@H](O)CO` [glucose]: the “glucose extracted into the butanol phase” value was “about 10%” in data set [4] and approximately 30 mg in data set [4] (out of 320 mg glucose). Moreover, the Glucose retained/extraction steps in data set [4] (setting [11]) is 12.6; in data set [4] (setting [12]), 14.5; in data set [4] (setting [13]), 16; in data set [4] (setting [14]), 18.5; in data set [4] (setting [15]) it was 19.4; in data set [4] (setting [16]) it was 17.8. The values for the Glucose retained/extraction steps in data set [4] (setting [17]), in data set [4] (setting [18]) and in data set [4] (setting [19]) were 17.5, 16.5 and 16, respectively. Besides, the “Glucose retained after extraction” value is given as 190 mg in data set [4] (setting [11]); 189 mg in data set [4] (setting [12]); 187 mg in data set [4] (setting [13]); 185 mg in data set [4] (setting [14]); 175 mg in data set [4] (setting [15]); 160 mg in data set [4] (setting [16]). The “Glucose retained after extraction” value came out at 140 mg in data set [4] (setting [17]), 115 mg in data set [4] (setting [18]) and 95 mg in data set [4] (setting [19]). Also, the Glucose extracted came out at 2 mg in data set [4] (butanol:hexane 5:5); 3 mg in data set [4] (butanol:hexane 6:4); 4 mg in data set [4] (butanol:hexane 6.5:3.5); 4.5 mg in data set [4] (butanol:hexane 7:3); 5 mg in data set [4] (butanol:hexane 7.5:2.5); 5.5 mg in data set [4] (butanol:hexane 8:2). The values for the Glucose extracted in data set [4] (butanol:hexane 8.5:1.5), in data set [4] (butanol:hexane 9:1) and in data set [4] (butanol:hexane 10:0) were 7 mg, 12 mg and 20 mg, respectively. Besides, the Precipitated glucose in data set [5] (Entry 0: LiBr 0 mg, water 0 μL) worked out at 400 mg; in data set [5] (Entry 1: LiBr 50 mg, water 30 μL), 330 mg; in data set [5] (Entry 2: LiBr 50 mg, water 50 μL), 330 mg; in data set [5] (Entry 3: LiBr 50 mg, water 100 μL), 330 mg; in data set [5] (Entry 4: LiBr 50 mg, water 150 μL), 330 mg; in data set [5] (Entry 5: LiBr 100 mg, water 150 μL) it was 320 mg. Besides, the Precipitated glucose is on record as 300 mg in data set [5] (Entry 6: LiBr 150 mg, water 150 μL) and 250 mg in data set [5] (Entry 7: LiBr 200 mg, water 150 μL). The “glucose extracted into butanol/hexane” value in data set [2] (butanol/hexane 5:5, 30 extractions) is on record as 10 mg. Further, in data set [2] (butanol/hexane 5:5, 30 extractions, from 200 mg), the “glucose left in the solution” value was 190 mg. In addition, the “glucose left in the aqueous phase” value in data set [2] (butanol/hexane 7:3, 10 extractions, 1500 mg CaBr2, 1 mL water, 200 mg glucose) is on record as “approximately 95 mg”. Further, the “solubility in n-butanol (in words)” value in data set [6] is reported as “insoluble”.

`[Br-].[Li+]` [LiBr, Lithium bromide]: the “inhibition on sugar fermentation” value in data set [1] (setting [10]) is “more inhibitory than NaCl and CaCl2”; in data set [1] (salt concentration 5% (w/v)) it was “the inhibition was significant”; in data set [1] (salt concentration below 5% (w/v), FIG. 7), “did not have significant inhibition”. Also, the “LiBr content left in the LiBr-glucose solution” value in data set [4] (after 10 extractions, from 1500 mg) is 250 mg; in data set [4] (after 20 extractions), 50 mg; in data set [4] (after 30 extractions), 30 mg. The LiBr extracted stood at 141 mg in data set [4] (butanol:hexane 5:5); 152 mg in data set [4] (butanol:hexane 6:4); 195 mg in data set [4] (butanol:hexane 6.5:3.5); 216 mg in data set [4] (butanol:hexane 7:3); 231 mg in data set [4] (butanol:hexane 7.5:2.5); 252 mg in data set [4] (butanol:hexane 8:2). In addition, the figures for the LiBr extracted in data set [4] (butanol:hexane 8.5:1.5), in data set [4] (butanol:hexane 9:1) and in data set [4] (butanol:hexane 10:0) were 277 mg, 310 mg and 383 mg, respectively. Further, the “LiBr/sugar (separation efficiency)” value in data set [4] (butanol:hexane 5:5) is given as 71; in data set [4] (butanol:hexane 6:4), 51; in data set [4] (butanol:hexane 6.5:3.5), 49; in data set [4] (butanol:hexane 7:3) it was 48; in data set [4] (butanol:hexane 7.5:2.5), 46; in data set [4] (butanol:hexane 8:2), 46. The “LiBr/sugar (separation efficiency)” value came to 40 in data set [4] (butanol:hexane 8.5:1.5), 26 in data set [4] (butanol:hexane 9:1) and 19 in data set [4] (butanol:hexane 10:0). In addition, in data set [3], the Conversion was 100%. In data set [3], the “conversion/hydrolysis” value is recorded as “complete conversion/hydrolysis”.

Regarding `[Ca+2].[Cl-].[Cl-]` [CaCl2, calcium chloride, reference compound], the “inhibition on sugar fermentation” value in data set [1] (setting [9]) is recorded as “does not appear to be inhibitory”. The Conversion in data set [3] worked out at 70%.

Molecule `Cl` [HCl, hydrochloric acid] returned a Conversion in data set [7] of 100%.

`O=P(O)(O)O` [H3PO4, phosphoric acid]: in data set [7], the Conversion came to 95%.

In the case of `CC(=O)O` [CH3COOH, acetic acid], the Conversion in data set [7] is listed as 90%.

In the case of `[Cl-].[Li+]` [LiCl, reference compound], the “temperature at which the solution starts crystallizing” value in data set [8] is 120 °C. Besides, the “conversion/hydrolysis” value in data set [3] was “complete conversion/hydrolysis”.

In data set [7], `O=[N+]([O-])O` [HNO3, nitric acid] yielded a Conversion of 100%. Moreover, the “effectiveness in catalyzing the hydrolysis of spruce (in words)” value in data set [7] (60% LiBr solution) is “as effective as hydrochloric acid”.
